These are literature values, as cited in article PMC8086892 (Peptide science (Hoboken, N.J.), 2020).

For series [1] the following is noted: ref Orivel et al. [27].
For series [2] the following is noted: ref Orivel et al. [27]. The source holds these as a separate data set.

Consider Ponericin L2, for which the Hemolytic activity entry in series [1] was “no detectable hemolytic activity”. The Antimicrobial activity result in series [2] is reported as “broad spectrum antimicrobial activity”.
